Values of other authors as cited in paper PMC11014758 (ACS infectious diseases, 2024).

How the values were obtained:
LasR [1] = target: T1, LasR (Pseudomonas aeruginosa, UniProt P25084); conditions: same strain, analogous assay conditions; ref Moore et al. 2015 [15]
LasR [2] = target: T1, LasR; conditions: same strain, analogous assay conditions; ref Moore et al. 2015 [15]; remark: listed apart in the source

T1 sequence (P25084 whole entry): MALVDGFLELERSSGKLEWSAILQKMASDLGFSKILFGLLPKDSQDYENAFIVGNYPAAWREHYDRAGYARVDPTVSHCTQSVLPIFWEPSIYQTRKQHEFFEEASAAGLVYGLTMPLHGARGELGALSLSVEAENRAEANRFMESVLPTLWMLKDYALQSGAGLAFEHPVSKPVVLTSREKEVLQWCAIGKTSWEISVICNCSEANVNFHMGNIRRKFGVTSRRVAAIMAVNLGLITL

Compound	IC50 (LasR [1]) [µM]	Maximum Inhibition (LasR [1]) [%]	Maximum Activation (LasR [2]) [%]
chlorolactone [CL]	21	55	
CCCCCCCCCNC(=O)CC(=O)c1ccccc1 [V-06–018]	5.2		
CCCCCCCCCC(=O)CC(=O)N[C@H]1CCOC1=O [OdDHL, N-(3-oxo)-dodecanoyl L-homoserine lactone]			100
